Experimental data from ChEMBL document CHEMBL5584230, “Exploring fluorine-substituted piperidines as potential therapeutics for diabetes mellitus and Alzheimer's diseases” (Eur J Med Chem, 2024).
Several values for one entry are separate records, joined by “and”; a condition that tells them apart may be missing. Identical values can stand only once. Activity calls are given as the source filed them. The rule behind the calls is not given here.

Legend:
[1] = Antioxidant activity assessed as DPPH radical scavenging activity incubated for 30 mins; assay type: functional
[2] = tested on: Rattus norvegicus; test: Anti-diabetic activity in STZ-induced diabetic Sprague-Dawley rat model assessed as reduction in blood glucose level at 9 mg/kg, ip measured at day 28 (reference value: 501.71 +/- 3.91 mg/dl); assay type: functional; settings: time 28 day
[3] = tested on: Rattus norvegicus; test: Anti-diabetic activity in STZ-induced diabetic Sprague-Dawley rat model assessed as reduction in HDL level in plasma at 9 mg/kg, ip (reference value: 21.09 +/- 1.71 mg/dl); assay type: functional
[4] = tested on: Rattus norvegicus; test: Anti-diabetic activity in STZ-induced diabetic Sprague-Dawley rat model assessed as increase in body weight at 9 mg/kg, ip measured at day 14; assay type: functional, organism-based; settings: time 14.0 day
[5] = tested on: Rattus norvegicus; test: Anti-diabetic activity in STZ-induced diabetic Sprague-Dawley rat model assessed as reduction in blood glucose level at 9 mg/kg, ip measured at day 21 (reference value: 503.09 +/- 4.15 mg/dl); assay type: functional; settings: time 21 day
[6] = biological target: Cholinesterase (Homo sapiens, UniProt P06276); test: Inhibition of BchE (unknown origin)
[7] = Inhibition of alpha-glucosidase (unknown origin); parameters: species or system Homo sapiens
[8] = tested on: Rattus norvegicus; test: Anti-diabetic activity in STZ-induced diabetic Sprague-Dawley rat model assessed as reduction in blood glucose level at 9 mg/kg, ip measured at day 1 (reference value: 494.14 +/- 4.15 mg/dl); assay type: functional; settings: time 1 day
[9] = tested on: Rattus norvegicus; test: Anti-diabetic activity in STZ-induced diabetic Sprague-Dawley rat model assessed as reduction in blood glucose level at 9 mg/kg, ip measured at day 14 (reference value: 489.44 +/- 4.18 mg/dl); assay type: functional; settings: time 14 day
[10] = Antioxidant activity assessed as ABTS radical scavenging activity; assay type: functional
[11] = tested on: Rattus norvegicus; test: Anti-diabetic activity in STZ-induced diabetic Sprague-Dawley rat model assessed as reduction in TG level in plasma at 9 mg/kg, ip (reference value: 226.19 +/- 3.97 mg/dl); assay type: functional
[12] = tested on: Rattus norvegicus; test: Anti-diabetic activity in STZ-induced diabetic Sprague-Dawley rat model assessed as increase in body weight at 9 mg/kg, ip measured at day 1; assay type: functional, organism-based; settings: time 1.0 day
[13] = biological target: T1, Acetylcholinesterase (Homo sapiens, UniProt P22303); test: Inhibition of AChE (unknown origin)
[14] = tested on: Rattus norvegicus; test: Anti-diabetic activity in STZ-induced diabetic Sprague-Dawley rat model assessed as reduction in blood glucose level at 9 mg/kg, ip measured at day 7 (reference value: 490.69 +/- 3.98 mg/dl); assay type: functional; settings: time 7 day
[15] = tested on: Rattus norvegicus; test: Anti-diabetic activity in STZ-induced diabetic Sprague-Dawley rat model assessed as change in blood glucose level at 9 mg/kg, ip measured for 28 days; assay type: functional, organism-based; settings: time 28.0 day
[16] = tested on: Rattus norvegicus; test: Anti-diabetic activity in STZ-induced diabetic Sprague-Dawley rat model assessed as reduction in cholesterol level in plasma at 9 mg/kg, ip (reference value: 218 +/- 4.41 mg/dl); assay type: functional
[17] = tested on: Rattus norvegicus; test: Anti-diabetic activity in STZ-induced diabetic Sprague-Dawley rat model assessed as reduction in LDL level in plasma at 9 mg/kg, ip (reference value: 138.19 +/- 3.67 mg/dl); assay type: functional
[18] = tested on: Rattus norvegicus; test: Anti-diabetic activity in STZ-induced diabetic Sprague-Dawley rat model assessed as increase in body weight at 9 mg/kg, ip measured at day 28; assay type: functional, organism-based; settings: time 28.0 day
[19] = Acute toxicity in BALB/c mouse upto 100 mg/kg, ip administered for 72 hrs and measured after 14 days; assay type: organism-based; settings: in vivo, 408 h, time 17 day
[20] = organism: Homo sapiens; test: Competitive inhibition of alpha-glucosidase (unknown origin) […] using p-nitrophenyl glucopyranoside as substrate assessed as increase in Km with constant Vmax upto 180 uM using varying concentrations of substrate measured for 20 mins by Lineweaver-Burk plot analysis
[21] = Inhibition of alpha-glucosidase (unknown origin) using p-nitrophenyl glucopyranoside as substrate assessed as inhibition constant by Lineweaver-Burk plot analysis; parameters: species or system Homo sapiens
[22] = biological target: T1, Acetylcholinesterase; test: Mixed type inhibition of AChE (unknown origin) using […] assessed as effect on Vmax and Km at 1.95 to 7.8 uM by Lineweaver-Burk plot analysis; settings: dose 1.95-7.8 µM
[23] = biological target: T1, Acetylcholinesterase; test: Inhibition of AChE (unknown origin) using […] assessed as inhibition constant by Lineweaver-Burk plot analysis

T1 sequence (P22303 whole entry): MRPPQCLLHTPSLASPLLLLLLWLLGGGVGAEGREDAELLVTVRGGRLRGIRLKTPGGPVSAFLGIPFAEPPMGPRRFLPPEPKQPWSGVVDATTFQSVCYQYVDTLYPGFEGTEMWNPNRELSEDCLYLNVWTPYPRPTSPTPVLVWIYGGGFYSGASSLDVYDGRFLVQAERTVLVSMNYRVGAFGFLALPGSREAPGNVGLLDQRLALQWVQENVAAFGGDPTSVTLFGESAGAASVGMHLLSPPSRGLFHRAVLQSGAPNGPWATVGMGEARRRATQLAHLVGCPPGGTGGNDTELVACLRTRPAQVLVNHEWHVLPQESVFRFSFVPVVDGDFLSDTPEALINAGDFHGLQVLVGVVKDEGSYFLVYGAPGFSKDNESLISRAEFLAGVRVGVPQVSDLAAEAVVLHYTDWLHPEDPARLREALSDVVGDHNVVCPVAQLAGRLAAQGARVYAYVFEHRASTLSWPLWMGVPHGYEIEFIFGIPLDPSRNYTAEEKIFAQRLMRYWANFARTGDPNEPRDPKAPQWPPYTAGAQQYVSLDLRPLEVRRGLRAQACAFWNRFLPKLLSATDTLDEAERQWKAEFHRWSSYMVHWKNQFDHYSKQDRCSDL
Cholinesterase, sequence (P06276 whole entry): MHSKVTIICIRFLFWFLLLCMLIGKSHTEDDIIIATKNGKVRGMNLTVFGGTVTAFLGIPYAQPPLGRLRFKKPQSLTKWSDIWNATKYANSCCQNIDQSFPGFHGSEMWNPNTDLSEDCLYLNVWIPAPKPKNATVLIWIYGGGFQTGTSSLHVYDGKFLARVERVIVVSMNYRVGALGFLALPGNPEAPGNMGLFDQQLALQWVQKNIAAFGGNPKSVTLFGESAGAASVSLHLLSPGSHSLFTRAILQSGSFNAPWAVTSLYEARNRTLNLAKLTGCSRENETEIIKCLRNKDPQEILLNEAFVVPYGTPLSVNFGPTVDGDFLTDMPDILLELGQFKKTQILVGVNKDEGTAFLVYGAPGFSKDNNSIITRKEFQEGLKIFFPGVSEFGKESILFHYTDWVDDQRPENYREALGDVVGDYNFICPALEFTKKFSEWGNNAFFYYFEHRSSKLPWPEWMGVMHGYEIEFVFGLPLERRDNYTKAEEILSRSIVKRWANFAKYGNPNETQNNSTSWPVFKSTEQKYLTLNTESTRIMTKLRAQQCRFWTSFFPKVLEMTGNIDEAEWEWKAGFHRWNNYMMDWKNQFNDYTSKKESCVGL

| SMILES | IC50 [1] | Activity [2] [mg/dL] | Activity [3] [mg/dL] | Activity [4] | Activity [5] [mg/dL] | IC50 [6] [nM] | IC50 [7] [nM] | Activity [8] [mg/dL] | Activity [9] [mg/dL] | IC50 [10] | Activity [11] [mg/dL] | Activity [12] | IC50 [13] [nM] | Activity [14] [mg/dL] | Activity [15] | Activity [16] [mg/dL] | Activity [17] [mg/dL] | Activity [18] | Activity [19] | also measured |
| --- | --- | --- | --- | --- | --- | --- | --- | --- | --- | --- | --- | --- | --- | --- | --- | --- | --- | --- | --- | --- |
| O=C1O[C@H]([C@@H](O)CO)C(O)=C1O [ASCORBIC ACID] | 640 nM | – | – | – | – | – | – | – | – | – | – | – | – | – | – | – | – | – | – | – |
| CCOC(=O)C1=C(Nc2ccc(F)cc2)CC(c2ccc(Cl)cc2)N(c2ccc(F)cc2)C1c1ccc(Cl)cc1 (stereo not drawn) | 1320 nM | 167.81 | 28.09 | Active | 244.27 | 1020 | 291 | 498.7 | 349.78 | 461 nM | 104.2 | Active | 916 | 427.82 | Active | 87.96 | 61.39 | Active | Non-Toxic | – |
| Cc1c(C)c2c(c(C)c1O)CCC(C)(C(=O)O)O2 (stereo not drawn) [TROLOX] | – | – | – | – | – | – | – | – | – | 28 nM | – | – | – | – | – | – | – | – | – | – |
| CCOC(=O)C1=C(Nc2cccc(F)c2)CC(c2ccc(F)cc2)N(c2cccc(F)c2)C1c1ccc(F)cc1 (stereo not drawn) | 1100 nM | – | – | – | – | 1990 | 367 | – | – | 519 nM | – | – | 1420 | – | – | – | – | – | – | – |
| CCOC(=O)C1=C(Nc2ccc(F)cc2)CC(c2cccc(F)c2)N(c2ccc(F)cc2)C1c1cccc(F)c1 (stereo not drawn) | 950 nM | – | – | – | – | 1330 | 457 | – | – | 562 nM | – | – | 1120 | – | – | – | – | – | – | – |
| C[C@H]1O[C@H](O[C@H]2[C@H](O)[C@@H](O)[C@@H](O[C@H]3[C@H](O)[C@@H](O)C(O)O[C@@H]3CO)O[C@@H]2CO)[C@H](O)[C@@H](O)[C@@H]1N[C@H]1C=C(CO)[C@@H](O)[C@H](O)[C@H]1O (stereo partly drawn) [ACARBOSE] | – | – | – | – | – | – | 28700 | – | – | – | – | – | – | – | – | – | – | – | – | – |
| CCOC(=O)C1=C(Nc2cccc(F)c2)CC(c2ccc(C(F)(F)F)cc2)N(c2cccc(F)c2)C1c1ccc(C(F)(F)F)cc1 (stereo not drawn) | 814 nM | 152.61 | 31.06 | Active | 240.19 | 1270 | 220 | 495.39 | 334.29 | 629 nM | 93.71 | Active | 1190 | 422.69 | Active | 78.67 | 51.22 | Active | Non-Toxic | – |
| CCOC(=O)C1=C(Nc2cccc(F)c2)CC(c2ccc(Cl)cc2)N(c2cccc(F)c2)C1c1ccc(Cl)cc1 (stereo not drawn) | 983 nM | – | – | – | – | 1700 | 384 | – | – | 712 nM | – | – | 1270 | – | – | – | – | – | – | – |
| CCOC(=O)C1=C(Nc2ccccc2)CC(c2ccc(F)cc2)N(c2ccccc2)C1c1ccc(F)cc1 (stereo not drawn) | 1050 nM | – | – | – | – | 1280 | 473 | – | – | 216 nM | – | – | 1360 | – | – | – | – | – | – | – |
| CCOC(=O)C1=C(Nc2ccc(F)cc2)CC(c2ccc(C(F)(F)F)cc2)N(c2ccc(F)cc2)C1c1ccc(C(F)(F)F)cc1 (stereo not drawn) | 633 nM | 138.56 | 33.51 | Active | 231.77 | 1020 | 176 | 497.98 | 320.81 | 167 nM | 91.96 | Active | 932 | 417.55 | Active | 75.05 | 47.51 | Active | Non-Toxic | inhibition [20]: Active; Ki [21]: 117000 nM |
| CCOC(=O)C1=C(Nc2ccc(F)cc2)CC(c2ccc(F)cc2)N(c2ccc(F)cc2)C1c1ccc(F)cc1 (stereo not drawn) | 691 nM and 690 nM | 159.45 | 27.73 | Active | 256.71 | 739 | 251 | 501.12 | 341.51 | 22 nM and 20 nM | 97.65 | Active | 774 | 419.93 | Active | 91.16 | 59.16 | Active | Non-Toxic | inhibition [22]: Active; Ki [23]: 2050 nM |
